According to patent US20110118262A1, “Pyrrolidinyl and Piperidinyl Compounds Useful as NHE-1 Inhibitiors” (BOEHRINGER INGELHEIM INTERNATIONAL GMBH, priority 2008, published 2011):

Molecular target: T1, NHE-1 (Homo sapiens, UniProt P19634)
T1 construct: endogenous in cells; host or cells: HT-29
Assay: Evaluation of NHE-1 Inhibition (pHi) in HT-29 cells
Format: cell-based
Details: BCECF dye, 50% inhibition of the intracellular pH recovery, read-out: NHE1 HT29 pHi IC50
Experimental: Evaluation of NHE-1 Inhibition (pHi)
HT-29 cells resuspended in DMEM supplemented with 10% FBS, 1% NEAA, and 1% Penn-Strep are seeded at 10,000 cells/well in collagen coated 384 well plates which are then incubated for 24 hours at 37° C. The next day, the medium is removed and the cells are dye (Invitrogen's BCECF) loaded for 30 minutes at 37° C., washed three times with an acid loading buffer (10 mM NH4Cl, 1.8 mM CaCl2, 90 mM Choline Cl, 5 mM Glucose, 15 mM Hepes, 5 mM KCl, 1 mM MgCl2, adjusted to pH 7.5 with KOH) and further incubated at RT for 30 minutes.
At the end of the incubation, the buffer is removed and 5 uL of fresh acid loading buffer is added to each well to prevent the dessication of the cells. The plate is placed in a Hamamatsu FDSS6000 instrument and candidate compounds are added to the cells.

T1 sequence (P19634 whole entry): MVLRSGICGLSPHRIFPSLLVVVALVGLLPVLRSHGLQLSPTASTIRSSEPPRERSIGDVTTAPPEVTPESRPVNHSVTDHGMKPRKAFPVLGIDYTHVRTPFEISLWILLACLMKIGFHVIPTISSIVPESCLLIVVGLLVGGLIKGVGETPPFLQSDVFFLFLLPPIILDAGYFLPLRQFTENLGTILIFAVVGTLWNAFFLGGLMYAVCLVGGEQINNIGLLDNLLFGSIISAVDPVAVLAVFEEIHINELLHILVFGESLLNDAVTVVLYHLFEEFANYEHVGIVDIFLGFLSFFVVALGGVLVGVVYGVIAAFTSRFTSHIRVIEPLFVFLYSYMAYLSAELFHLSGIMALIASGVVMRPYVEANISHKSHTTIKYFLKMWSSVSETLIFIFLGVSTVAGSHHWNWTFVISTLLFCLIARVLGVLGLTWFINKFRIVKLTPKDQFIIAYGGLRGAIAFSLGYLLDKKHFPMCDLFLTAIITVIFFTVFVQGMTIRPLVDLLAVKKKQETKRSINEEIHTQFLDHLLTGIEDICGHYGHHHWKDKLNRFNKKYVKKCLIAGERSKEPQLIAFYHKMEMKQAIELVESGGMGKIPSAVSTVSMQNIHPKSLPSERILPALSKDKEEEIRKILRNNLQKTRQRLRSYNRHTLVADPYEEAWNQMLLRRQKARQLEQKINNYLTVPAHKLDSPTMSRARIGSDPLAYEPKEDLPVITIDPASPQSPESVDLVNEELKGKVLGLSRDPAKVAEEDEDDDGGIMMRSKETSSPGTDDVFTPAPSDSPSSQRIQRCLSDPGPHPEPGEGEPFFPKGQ

Row | SMILES | IC50 [nM]
1 | COc1ccc(CC(N)C(=O)N2CCC(c3ccc(C(=O)NC(=N)N)cc3C(F)(F)F)CC2)cc1 (centres unmarked) | 37
2 | N=C(N)NC(=O)c1ccc(C2CCN(C(=O)c3ccc(Cl)c(S(N)(=O)=O)c3)CC2)c(C(F)(F)F)c1 [2-Chloro-5-[4-(4-guanidinocarbonyl-2-trifluoromethyl-phenyl)-piperidine-1-carbonyl]-benzenesulfonamide] | 13
3 | N=C(N)NC(=O)c1ccc(C2CCN(C(=O)C(N)CC(N)=O)CC2)c(C(F)(F)F)c1 (centres unmarked) [3-Amino-4-[4-(4-guanidinocarbonyl-2-trifluoromethyl-phenyl)-piperidin-1-yl]-4-oxo-butyramide] | 15
4 | N=C(N)NC(=O)c1ccc(C2CCN(C(N)=O)CC2)c(C(F)(F)F)c1 [4-(4-Guanidinocarbonyl-2-trifluoromethyl-phenyl)-piperidine-1-carboxylic acid amide] | 6
5 | CN(C)C(=O)N1CCC(c2ccc(C(=O)NC(=N)N)cc2C(F)(F)F)CC1 [4-(4-Guanidinocarbonyl-2-trifluoromethyl-phenyl)-piperidine-1-carboxylic acid dimethylamide] | 10
6 | CN(C)C(=O)c1ccc(C(=O)N2CCC(c3ccc(C(=O)NC(=N)N)cc3C(F)(F)F)CC2)cc1 [4-[4-(4-Guanidinocarbonyl-2-trifluoromethyl-phenyl)-piperidine-1-carbonyl]-N,N-dimethyl-benzamide] | 48
7 | CN(C)S(=O)(=O)c1ccc(C(=O)N2CCC(c3ccc(C(=O)NC(=N)N)cc3C(F)(F)F)CC2)cc1 [4-[4-(4-Guanidinocarbonyl-2-trifluoromethyl-phenyl)-piperidine-1-carbonyl]-N,N-dimethyl-benzenesulfonamide] | 36
8 | CNC(=O)c1ccc(C(=O)N2CCC(c3ccc(C(=O)NC(=N)N)cc3C(F)(F)F)CC2)cc1 [4-[4-(4-Guanidinocarbonyl-2-trifluoromethyl-phenyl)-piperidine-1-carbonyl]-N-methyl-benzamide] | 43
9 | CNS(=O)(=O)c1ccc(C(=O)N2CCC(c3ccc(C(=O)NC(=N)N)cc3C(F)(F)F)CC2)cc1 [4-[4-(4-Guanidinocarbonyl-2-trifluoromethyl-phenyl)-piperidine-1-carbonyl]-N-methyl-benzenesulfonamide] | 51
10 | N=C(N)NC(=O)c1ccc(C2CCN(C(=O)c3ccc(C(N)=O)cc3)CC2)c(C(F)(F)F)c1 [4-[4-(4-Guanidinocarbonyl-2-trifluoromethyl-phenyl)-piperidine-1-carbonyl]-benzamide] | 28
11 | N=C(N)NC(=O)c1ccc(C2CCN(C(=O)c3ccc(S(N)(=O)=O)cc3)CC2)c(C(F)(F)F)c1 [4-[4-(4-Guanidinocarbonyl-2-trifluoromethyl-phenyl)-piperidine-1-carbonyl]-benzenesulfonamdide] | 13
12 | COC(=O)c1ccc(C(=O)N2CCC(c3ccc(C(=O)NC(=N)N)cc3C(F)(F)F)CC2)cc1 [4-[4-(4-Guanidinocarbonyl-2-trifluoromethyl-phenyl)-piperidine-1-carbonyl]-benzoic acid methyl ester] | 183
13 | N=C(N)NC(=O)c1ccc(C2CCN(C(=O)c3ccc(C(=O)O)cc3)CC2)c(C(F)(F)F)c1 [4-[4-(4-Guanidinocarbonyl-2-trifluoromethyl-phenyl)-piperidine-1-carbonyl]-benzoic acid] | 27
14 | CNS(=O)(=O)c1ccc(Oc2ccc(C(=O)N3CCC(c4ccc(C(=O)NC(=N)N)cc4C(F)(F)F)CC3)cn2)cc1 [4-{5-[4-(4-Guanidinocarbonyl-2-trifluoromethyl-phenyl)-piperidine-1-carbonyl]-pyridin-2-yloxy}-N-methyl-benzenesulfonamide] | 92
15 | COc1cc(C2CCN(C(=O)[C@H](OC(C)=O)c3ccccc3)CC2)c(C(F)(F)F)cc1C(=O)NC(=N)N [(R)-Acetic acid 2-[4-(4-guanidinocarbonyl-5-methoxy-2-trifluoromethyl-phenyl)-piperidin-1-yl]-2-oxo-1-phenyl-ethyl ester] | 110
16 | Cn1cnc(C[C@@H](N)C(=O)N2CCC(c3ccc(C(=O)NC(=N)N)cc3C(F)(F)F)CC2)c1 [(R)-N-(4-{1-[-2--Amino-3-(1-methyl-1H-imidazol-4-yl)-propionyl]-piperidin-4-yl}-3-trifluoromethyl-benzoyl)-guanidine] | 43
17 | N=C(N)NC(=O)c1ccc(C2CCN(C(=O)[C@H](N)c3ccccc3)CC2)c(C(F)(F)F)c1 [(R)-N-{4-[1-(2-Amino-2-phenyl-acetyl)-piperidin-4-yl]-3-trifluoromethyl-benzoyl}-guanidine] | 24
18 | N=C(N)NC(=O)c1ccc([C@H]2CCN(C(=O)c3ccc(F)cc3)C2)c(C(F)(F)F)c1 [(R)-N-{4-[1-(4-fluoro-benzoyl)-pyrrolidin-3-yl]-3-trifluoromethyl-benzoyl}-guanidine] | 24

Row | SMILES | IC50 [nM]
19 | C[C@@](N)(Cc1ccccc1)C(=O)N1CCC(c2ccc(C(=O)NC(=N)N)cc2C(F)(F)F)CC1 [(R)-N-{4-[1-(-2--Amino-2-methyl-3-phenyl-propionyl)-piperidin-4-yl]-3-trifluoromethyl-benzoyl}-guanidine] | 24
20 | N=C(N)NC(=O)c1ccc([C@H]2CCN(C(=O)c3ccco3)C2)c(C(F)(F)F)c1 [(R)-N-{4-[1-(Furan-2-carbonyl)-pyrrolidin-3-yl]-3-trifluoromethyl-benzoyl}-guanidine] | 28
21 | N=C(N)NC(=O)c1ccc(C2CCN(C(=O)[C@@H](N)CC(=O)O)CC2)c(C(F)(F)F)c1 [(S)-3-Amino-4-[4-(4-guanidinocarbonyl-2-trifluoromethyl-phenyl)-piperidin-1-yl]-4-oxo-butyric acid] | 9
22 | COc1cc(C2CCN(C(=O)[C@@H](OC(C)=O)c3ccccc3)CC2)c(C(F)(F)F)cc1C(=O)NC(=N)N [(S)-Acetic acid 2--[4-(4-guanidinocarbonyl-5-methoxy-2-trifluoromethyl-phenyl)-piperidin-1-yl]-2-oxo-1-phenyl-ethyl ester] | 92
23 | Cn1cnc(C[C@H](N)C(=O)N2CCC(c3ccc(C(=O)NC(=N)N)cc3C(F)(F)F)CC2)c1 [(S)-N-(4-{1-[2-Amino-3-(1-methyl-1H-imidazol-4-yl)-propionyl]-piperidin-4-yl}-3-trifluoromethyl-benzoyl)-guanidine] | 49
24 | Cn1cncc1C[C@H](N)C(=O)N1CCC(c2ccc(C(=O)NC(=N)N)cc2C(F)(F)F)CC1 [(S)-N-(4-{1-[2-Amino-3-(3-methyl-3H-imidazol-4-yl)-propionyl]-piperidin-4-yl}-3-trifluoromethyl-benzoyl)-guanidine] | 22
25 | COc1cc(C2CCN(C(=O)[C@@](C)(O)c3ccccc3)CC2)c(C(F)(F)F)cc1C(=O)NC(=N)N [(S)-N-{4-[1-(2-Hydroxy-2-phenyl-propionyl)-piperidin-4-yl]-2-methoxy-5-trifluoromethyl-benzoyl}-guanidine] | 200
26 | N=C(N)NC(=O)c1ccc(C2CCN(C(=O)[C@@H](N)c3ccccc3)CC2)c(C(F)(F)F)c1 [(S)-N-{4-[1-(-2-Amino-2-phenyl-acetyl)-piperidin-4-yl]-3-trifluoromethyl-benzoyl}-guanidine] | 21
27 | C[S+]([O-])CC[C@H](N)C(=O)N1CCC(c2ccc(C(=O)NC(=N)N)cc2C(F)(F)F)CC1 (stereo partly drawn) [(S)-N-{4-[1-(-2-Amino-4-methanesulfinyl-butyryl)-piperidin-4-yl]-3-trifluoromethyl-benzoyl}-guanidine] | 12
28 | N=C(N)NC(=O)c1ccc(C2CCN(C(=O)[C@@H]3CCC(=O)N3)CC2)c(C(F)(F)F)c1 [(S)-N-{4-[1-(-5-Oxo-pyrrolidine-2-carbonyl)-piperidin-4-yl]-3-trifluoromethyl-benzoyl}-guanidine] | 11
29 | N=C(N)NC(=O)c1ccc([C@@H]2CCN(C(=O)c3ccc(F)cc3)C2)c(C(F)(F)F)c1 [(S)-N-{4-[-1-(4-fluoro-benzoyl)-pyrrolidin-3-yl]-3-trifluoromethyl-benzoyl}-guanidine] | 18
30 | N=C(N)NC(=O)c1ccc([C@@H]2CCN(C(=O)c3ccco3)C2)c(C(F)(F)F)c1 [(S)-N-{4-[-1-(Furan-2-carbonyl)-pyrrolidin-3--yl]-3-trifluoromethyl-benzoyl}-guanidine] | 17
31 | Cc1cc(C2CCN(C(=O)CN3CCCC3=O)CC2)c(C(F)(F)F)cc1C(=O)NC(=N)N [N-(2-Methyl-4-{1-[2-(2-oxo-pyrrolidin-1-yl)-acetyl]-piperidin-4-yl}-5-trifluoromethyl-benzoyl)-guanidine] | 37
32 | CS(=O)(=O)c1ccccc1Oc1cc(C(=O)N2CCC(c3ccc(C(=O)NC(=N)N)cc3C(F)(F)F)CC2)ccn1 [N-(4-{1-[2-(2-Methanesulfonyl-phenoxy)-pyridine-4-carbonyl]-piperidin-4-yl}-3-trifluoromethyl-benzoyl)-guanidine] | 76
33 | COc1ccccc1-c1cc(C(=O)N2CCC(c3ccc(C(=O)NC(=N)N)cc3C(F)(F)F)CC2)ccn1 [N-(4-{1-[2-(2-Methoxy-phenyl)-pyridine-4-carbonyl]-piperidin-4-yl}-3-trifluoromethyl-benzoyl)-guanidine] | 200
34 | N=C(N)NC(=O)c1ccc(C2CCN(C(=O)Cc3ccc(F)cc3)CC2)c(C(F)(F)F)c1 [N-(4-{1-[2-(4-Fluoro-phenyl)-acetyl]-piperidin-4-yl}-3-trifluoromethyl-benzoyl)-guanidine] | 135
35 | COc1ccc(CC(=O)N2CCC(c3ccc(C(=O)NC(=N)N)cc3C(F)(F)F)CC2)cc1 [N-(4-{1-[2-(4-Methoxy-phenyl)-acetyl]-piperidin-4-yl}-3-trifluoromethyl-benzoyl)-guanidine] | 140
